Values of other authors, collected in patent publication US8729014B2, “Specific HCV NS3 protease inhibitors” (RFS Pharma, LLC, priority 2010, dated 2014).

Test system: HepG2 cells
Conditions: HepG2 cells incubated with 10 μM; cited from earlier work

O=c1[nH]c(=O)n([C@@H]2O[C@H](CO)[C@@H](O)[C@@H]2F)cc1I [fialuridine, 1,2′-deoxy-2′-fluoro-1-D-arabinofuranosly-5-iodo-uracil]
morphological changes in mitochondria (electron micrographs): enlarged mitochondria with morphological changes consistent with mitochondrial dysfunction
